For orientation: thermodynamic solubility means the concentration in solution at equilibrium with solid. In general, logD refers to the decadic logarithm of the distribution of all forms, ionised or not, between an organic phase and buffer at a given pH. As a reminder, the fraction unbound is the share of the substance not bound to proteins or other matrix. As a reminder, the Vd is a proportionality between amount in the body and measured concentration, not a real space. The bioavailability is dose-corrected exposure relative to a reference, in per cent. High values mean good availability, low ones poor availability. Broadly, the IC90 is the concentration at which the effect reaches the 90% level. A word on the pIC50: it is the negative decadic logarithm of the IC50, by convention in mol/L.

Structures are written as SMILES. pIC50: −log10 of the molar value. In brackets after ≈: the same amount, converted by molar mass. Where only a bound is given, the exact number is not on record here.

Data set [1] is described as follows: Thermodynamic solubility of compound at pH 7.4 aqueous phosphate buffer.
The nature of data set [2]: Lipophilicity, logD of the compound at pH 7.4 by HPLC-DAD analysis. Type of data set: physicochemical. Particulars: buffer.
Data set [3] can be described thus: Metabolic stability in human liver microsomes assessed as compound remaining at 1 uM by LC-MS/MS analysis. Type of data set: ADME, Microsome. Particulars: for Stabilty: microsomes, 1 µM.
A short description of data set [4]: Metabolic stability in rat liver microsomes assessed as compound remaining at 1 uM by LC-MS/MS analysis. Particulars: for Stabilty: microsomes, 1 µM. The data set is classed as ADME, Microsome.
Data set [5] can be described thus: Metabolic stability in mouse liver microsomes assessed as compound remaining at 1 uM by LC-MS/MS analysis. Type of data set: ADME, Microsome. The following applies: for Stabilty: microsomes, 1 µM. In general terms: Liver microsomes are a subcellular fraction often used to study metabolism.
A short description of data set [6]: Unbound clearance in iv dosed C57BL/6 mouse measured up to 24 hrs by LC-MS/MS analysis. Type of data set: ADME, organism-based. Particulars: in vivo.
A short description of data set [7]: AUC (0 to t) in iv dosed C57BL/6 mouse measured up to 24 hrs by LC-MS/MS analysis. The data set is classed as ADME, organism-based. Set-up: time <=24. Particulars: in vivo.
Data set [8] is described as follows: Dru metabolism in iv dosed mouse assessed as metabolite in blood. Type of data set: ADME, organism-based. Particulars: in vivo.
Data set [9] can be described thus: Dru metabolism in iv dosed mouse assessed as metabolite in urine. The following applies: in vivo. Type of data set: ADME, organism-based.
Data set [10] is described as follows: Dru metabolism in iv dosed mouse assessed as metabolite in feces. Type of data set: ADME, organism-based. The following applies: in vivo.
Data set [11] is described as follows: Plasma protein binding in human assessed as unbound fraction at 5 uM by LC-MS/MS analysis. Particulars: for Fu: 5 µM. The data set is classed as ADME, cell-free.
The nature of data set [12]: Terminal half life in iv dosed C57BL/6 mouse measured up to 24 hrs by LC-MS/MS analysis. The data set is classed as ADME, organism-based. The following applies: in vivo; for beta t1/2: mouse, 24 h.
Data set [13] is described as follows: Volume of distribution in iv dosed C57BL/6 mouse measured up to 24 hrs by LC-MS/MS analysis. The data set is classed as ADME, organism-based. The following applies: in vivo.
The nature of data set [14]: Oral bioavailability in mouse. Type of data set: ADME, organism-based. Particulars: in vivo.
The subject of data set [15] is Mycobacterium tuberculosis. The data set is described as follows: animal or person. Type of data set: functional. The following applies: time 7 day.
Data set [16] is described as follows: Toxicity in BALB/c mouse assessed as tolerability at 200 mg/kg, po once a day treatment initiated 7 days after infection for 12 consecutive days. Type of data set: organism-based. The following applies: in vivo, 168 h, time 7 day.
Data set [17] relates to Mycobacterium tuberculosis. As to the kind of experiment: microbe, parasite or virus in culture. The following applies: H37Rv, 336 h.
Description: Antimycobacterial activity against Mycobacterium tuberculosis H37Rv in presence of middlebrook 7H9/glucose/BSA/tyloxapol medium measured after 14 days by bioluminescence reporter assay
Data set [18] relates to Mycobacterium tuberculosis. The data set is described as follows: microbe, parasite or virus in culture. Particulars: H37RvMA, 336 h.
Description: Antimycobacterial activity against Mycobacterium tuberculosis H37RvMA in presence of middlebrook 7H9/glucose/BSA/tyloxapol medium measured for 2 weeks by bioluminescence reporter assay
Data set [19] concerns Mycobacterium tuberculosis. As to the kind of experiment: microbe, parasite or virus in culture. The following applies: 336 h.
Description: Antimycobacterial activity against Mycobacterium tuberculosis delta cyd in presence of middlebrook 7H9/glucose/BSA/tyloxapol medium measured for 2 weeks by bioluminescence reporter assay
The subject of data set [20] is Mycobacterium tuberculosis. The data set is described as follows: microbe, parasite or virus in culture. The following applies: H37RvMA.
Description: Antimycobacterial activity against drug-susceptible Mycobacterium tuberculosis H37RvMA by MIGIT method
Data set [21] concerns Mycobacterium tuberculosis. As to the kind of experiment: microbe, parasite or virus in culture. The following applies: S2371.
Description: Antimycobacterial activity against drug-susceptible Mycobacterium tuberculosis S2371 by MIGIT method
Data set [22] has as its system Mycobacterium tuberculosis. As to the kind of experiment: microbe, parasite or virus in culture. Particulars: S1125.
Description: Antimycobacterial activity against drug-susceptible Mycobacterium tuberculosis S1125 by MIGIT method
The test system of data set [23] is Mycobacterium tuberculosis. The data set is classed as functional. Particulars: H37Rv.
Data set [24] has as its system HepG2. The data set is described as follows: Cytotoxicity against human HepG2 cells under glucose containing medium. The data set is classed as cell-based.
Data set [25] deals with HepG2. The data set is described as follows: Cytotoxicity against human HepG2 cells under galactose containing medium. The data set is classed as cell-based.
Where [26] appears, read: liver microsomes, read-out: Stabilty.

For the molecule `CS(=O)(=O)NC(=O)NCc1cn(-c2ccc(Cl)cc2)nc1-c1ccncc1`, the solubility (thermodynamic) in [1] was determined as 150 µM (≈ 60.9 µg/mL). The logD in [2] came out at 0.81. The figures for the Stabilty in [3], in data set [4] and in [5] were 99%, 98% and 91%, respectively. The molecule also registered a CL free in data set [6] of 4878 mL/min/kg. Further, the AUCt in data set [7] turned out to be 29 µmol·min/L. Further, the Drug metabolism entry in data set [8], in [9] and in data set [10] was “Metabolite_Notdetected” throughout.

Molecule `CS(=O)(=O)NC(=O)CCc1cn(-c2ccc(Cl)cc2)nc1-c1ccc(Cl)cc1` came in with a solubility (thermodynamic) in data set [1] of 100 µM (≈ 43.8 µg/mL). Moreover, the logD in [2] (read-out: logD) amounted to 2. The remaining at 1 µM in data set [3] (setting [26]) is 98%; in [4] (setting [26]) it was greater than 99%; in data set [5] (setting [26]), 87%. Besides, the fraction unbound at 5 µM in [11] is 0.023. The half-life in data set [12] (C57BL/6, mouse, read-out: beta t1/2 (converted)) is 3.6 h. The Vd in data set [13] (C57BL/6, mouse, read-out: Vd) amounted to 1.2 L/kg. In [6], this molecule yielded a CL free of 111 mL/min/kg. Moreover, the AUCt in [7] turned out to be 4883 µmol·min/L. This molecule yielded a bioavailability in [14] greater than 95%. The same molecule registered an MIC at 200 mg/kg in data set [15] (Mycobacterium tuberculosis, Erdman, in Mus musculus, po, 168 h) of 9.1 µM (≈ 3.99 µg/mL). Further, in data set [15] (dose 200 mg/kg), the fIC50 was found to be 11 µM. Besides, the Activity result in [16] is on record as “Non-Toxic”. Moreover, the values for the MIC in data set [17], in [18] and in data set [19] were 4.7 µM (≈ 2.06 µg/mL), 4 µM (≈ 1.75 µg/mL) and 4 µM (≈ 1.75 µg/mL), respectively.

Regarding `CCc1cc(C(N)=S)ccn1` [ETHIONAMIDE], the MIC in data set [18] came to 15.6 µM (≈ 2.59 µg/mL).

In turn, `CS(=O)(=O)NC(=O)CCc1cn(-c2ccc(Br)cc2)nc1-c1ccncc1` gave a thermodynamic solubility in data set [1] of 185 µM (≈ 83.1 µg/mL). This molecule showed a logD in [2] of 0.93. Besides, the values for the Stabilty in [3], in data set [4] and in data set [5] were 85%, 94% and 79%, respectively. Besides, in [12], the “beta t1/2” value turned out to be 1.3 h. Further, in data set [13] (C57BL/6, mouse, read-out: Vd), the Vd turned out to be 0.1 L/kg. Moreover, the CL free in [6] is greater than 20000 mL/min/kg. The molecule also registered an AUCt in data set [7] of 15 µmol·min/L. Further, the MIC in data set [20] was no more than 15 µM; in data set [21], 30 µM (≈ 13.5 µg/mL); in [22], 15 µM (≈ 6.74 µg/mL).

In the case of `CS(=O)(=O)NC(=O)CCc1cn(-c2ccc(Br)cc2)nc1-c1ccc(Cl)cc1`, in data set [23], the IC90 amounted to 6.25 µM. For the same molecule, the pIC50 in data set [24] and in data set [25] was less than 4.30 each time. The molecule further came in with a thermodynamic solubility in data set [1] of 170 µM (≈ 82.1 µg/mL). The same molecule registered a logD in data set [2] of 2.4. Besides, the Stabilty in data set [3] worked out at 90%; in [4], 74%; in data set [5], 71%. The molecule further returned a Vd in [13] (mouse, 24 h) of 0.2 L/kg. The same molecule gave a CL free in [6] of 295 mL/min/kg. Further, in data set [7], the AUCt stood at 3527 µmol·min/L.

Take `CS(=O)(=O)NC(=O)CCc1cn(-c2ccc(Br)cc2)nc1C1CCOCC1`: the thermodynamic solubility in [1] amounted to 200 µM (≈ 91.3 µg/mL). This molecule also registered a logD in data set [2] of 0.55. Moreover, the Stabilty in [3] was 86%; in data set [4], 83%; in data set [5] it was 77%. For the same molecule, the Fu in data set [11] turned out to be 0.07 fraction. The “beta t1/2” value in data set [12] turned out to be 2.3 h. For the same molecule, the distribution volume (Vd) in [13] (mouse, 24 h) was found to be 29.3 L/kg. The same molecule returned a CL free in data set [6] of 2071 mL/min/kg. In data set [7], this molecule registered an AUCt of 31 µmol·min/L. Moreover, in data set [17], the MIC was determined as 9.4 µM (≈ 4.29 µg/mL).

`CS(=O)(=O)NC(=O)CCc1cn(-c2ccc(C(F)(F)F)nc2)nc1-c1ccc(Cl)cc1` registered a thermodynamic solubility in data set [1] of 90 µM (≈ 42.6 µg/mL). In addition, the logD in data set [2] turned out to be 1.87. The Stabilty in data set [3] was determined as 94%; in data set [4], 98%; in data set [5] it was 94%. The Fu in data set [11] came out at 0.036 fraction. The “beta t1/2” value in [12] was 3 h. Moreover, the Vd in data set [13] (mouse, 24 h) was determined as 8.7 L/kg. Moreover, the CL free in data set [6] worked out at 1872 mL/min/kg. The molecule further gave an AUCt in [7] of 134 µmol·min/L. This molecule also came in with an MIC in data set [17] of 4.7 µM (≈ 2.22 µg/mL).

In data set [1], `CS(=O)(=O)NC(=O)CCc1cn(-c2ccc(Br)cc2)nc1-c1cccnc1` returned a thermodynamic solubility of 200 µM (≈ 89.9 µg/mL). The logD in data set [2] is 0.84. Also, the Stabilty in data set [3] was 37%; in data set [4], 95%; in data set [5], 94%. In addition, the Fu in data set [11] is reported as 0.022 fraction. Further, the “beta t1/2” value in [12] amounted to 1.7 h. This molecule also displayed a Vd in data set [13] (mouse, 24 h) of 28.1 L/kg. Further, the CL free in data set [6] was 8091 mL/min/kg. Further, the AUCt in data set [7] was found to be 31 µmol·min/L. In [17], this molecule displayed an MIC of 6.25 µM (≈ 2.81 µg/mL).

Molecule `CS(=O)(=O)NC(=O)CCc1cc(-c2ccc(Br)cc2)nn1-c1ccc(Cl)cc1` came in with a solubility (thermodynamic) in data set [1] of 200 µM (≈ 96.6 µg/mL). In addition, the logD in data set [2] is 2.1. For the same molecule, the Stabilty in [3] is given as greater than 99%; in data set [4] it was 87%; in [5], 91%. Also, the Fu in data set [11] turned out to be 0.01 fraction. In data set [12], the “beta t1/2” value was 3.6 h. Also, the Vd in data set [13] (mouse, 24 h) was 1 L/kg. In data set [6], this molecule gave a CL free of 313 mL/min/kg. Further, in [7], the AUCt was found to be 1359 µmol·min/L. This molecule registered an MIC in [17] of 6.25 µM (≈ 3.02 µg/mL).

The record behind these values is ChEMBL document CHEMBL4842359, “1,3-Diarylpyrazolyl-acylsulfonamides as Potent Anti-tuberculosis Agents Targeting Cell Wall Biosynthesis in Mycobacterium tuberculosis” (J Med Chem, 2021).
